# Test results published in PMC9229894, “In Silico, In Vitro, and Pharmacokinetic Studies of UBMC-4, a Potential Novel Compound for Treating against Trypanosoma cruzi” (Pathogens, 2022).
# “And” between values parts separate entries of the source, which are not always exact repeats. Equal values may be shown once. “Also recorded” adds a separate entry of the source.
# Tests used:
# [1] = Toxicity / tolerability in mice; format: in vivo
# [2] = Cytotoxicity, MTT method, CaCo2; format: cell-based; settings: human, Caco-2, read-out: LC50 median lethal concentration CaCo2
# Procedure: Cytotoxicity of UBMC-4 was tested in HepG2, CaCo2, and huMDM cell lines according to the effect on cell growth determined by the MTT microenzimatic method, as described by others. Briefly, 2.0 × 10^4 U-937 and huMDM or 2.5 × 10^4 HepG2 and CaCo2 cells were dispensed in 200 µL into each well of a 96-well tissue culture plate containing the corresponding culture medium. Then, 100 µL/well of each compound at a concentration of […] were added and plates were incubated at 37 °C, 5% CO2. After 72 h of incubation, 20 μL of MTT (Sigma-Aldrich, St Louis, MO, USA) were added to each well and plates were incubated for 3 h at 37 °C, 5% CO2. […] The concentration of formazan was determined at 570 nm in a spectrophotometer (Varioskan Flash Multimode Reader, Thermo Scientific, Waltham, MA, USA). […] Cytotoxicity was determined according to the percentages of viability and cell growth inhibition obtained for each compound, bz, doxorubicin, or medium alone. Non-specific absorbance was corrected by subtracting the OD of the blank (culture medium). Percentages of mortality were calculated using equation, as follows: % mortality = 100 − [(O.D. of treated cells)/(O.D. of non-treated cells)] × 100. The half maximal effective concentration (EC50) was calculated by the linear regression model Probit using Graphpad Prism software.
# [3] = In vivo pharmacokinetic analysis of UBMC-4 in mice (HPLC plasma, two-compartment model); parameters: species or system Balb/c Mus musculus
# Procedure: A total of 30 mice (15 males and 15 females) was randomly selected and divided into two groups: one group received a 200 µL oral single dose of UBMC-4 at a concentration of 60 mM (equivalent to a 200 mg/kg dose), and a control group receiving 200 µL of vehicle (Kolliphor and water without UBMC-4) via oral route. Considering that the average weight of the mice was 25 g, the total amount of UBMC-4 administered was 5 mg. The compound was only administered orally, it was not used intravenously since one of the primary objectives was to evaluate its gastrointestinal absorption. […] In this way, we wanted to find the highest potential plasma concentrations before inducing toxicity. Blood samples were collected in EDTA tubes via intracardiac puncture performed under general anesthesia in both groups at sampling time points as follows: 0 h, 1 h, 2 h, 3 h, 5 h, 6 h, 8 h, and 24 h. Samples were then centrifuged at 1800 rpm at 4 °C for 10 min to collect plasma. For each sampling time point, 100 µL of mouse plasma were collected and 200 µL of acetone were added. This mixture was vortexed for 30 s and centrifuged at 10,000 rpm at 4 °C for 20 min. Supernatants were poured into vials for HPLC analysis following the method described below.
# The amount of UBMC-4 in plasma samples was quantified by a HPLC method using a Hitachi Chromaster HPLC System with a Knauer C18 Column as follows: λ: 300 nm; temperature: 40 °C; run time: 13 min at a flow rate of 1.0 mL/min. A gradient of acetonitrile:water:methanol in a 30:40:30 ratio was used as mobile phase from baseline to minute 6, a 20:0:80 ratio from minute 7 to minute 10, and again a 30:40:30 ratio from minute 11. Linearity of the method was calculated for the 0.5 µg/mL to 20 µg/mL concentration range, with a r^2 (correlation coefficient) of 0.969 for the relationship between the area under the curve and UBMC-4 absorption at 300 nm.
# The ADAPT 5 software was used to determine the most suitable model for the UBMC-4 plasma concentration profile. The maximum likelihood estimation method was used for modeling. After conducting trials where various models were used, the best one was chosen based on the -Log-Likelihood (-LL) and Akaike information criterion (AIC) values. Consequently, by comparing models, the one producing lower values amongst these two parameters would be the one that best fit the plasma concentration data and the most useful for pharmacokinetic studies. Moreover, based on the R-square value (r^2), we assessed the correlation between the values predicted by the model and those observed in UBMC-4 plasma concentration. The selected model was therefore used to elaborate simulations using different administration regimens and thus predicting what would happen with UBMC-4 concentration levels upon administration of repeated dosage. This simulation was also performed using ADAPT 5 [36, 66, 67]
# [4] = two-compartment model, 200 mg/kg oral
smiles,measurement,setting,value
"Oc1ccc(-c2nc(-c3ccc4sc5ccccc5c4c3)c(-c3ccccc3)[nH]2)cc1 [UBMC-4, 4-(4-dibenzo-[b,d]-thien-2-yl-5-phenyl-1H-imidazol-2-yl)phenol]",tolerability in preliminary toxicity study,[1]; 200 mg/kg administered once and 100 mg/kg every 24 h for 30 days,significant tolerability
same,acute toxicity,"[1]; mice of the pharmacokinetic assay, 200 mg/kg oral single dose",did not exhibit acute toxicity
same,death of mice,"[1]; mouse, in vivo, po, 200 mg/kg",did not cause death to any of the mice
same,CC50 at 72 h,[2],> 40 µM
same,time of highest plasma concentration,[3]; 200 mg/kg oral single dose,3 h
same,oral absorption,"[3]; 200 mg/kg oral, Kolliphor RH40 formulation, 200 mg/kg",well absorbed; also recorded: absorbed orally
same,concentration at 0 h,"[3]; both sexes, Balb/c, mouse, plasma, 200 mg/kg oral single dose, 0 h",0 ng/mL
same,concentration at 1 h,"[3]; both sexes, Balb/c, mouse, plasma, 200 mg/kg oral single dose, 1 h",2800 ng/mL and 6.69 µM
same,concentration at 2 h,"[3]; both sexes, Balb/c, mouse, plasma, 200 mg/kg oral single dose, 2 h",3200 ng/mL
same,concentration at 3 h,"[3]; both sexes, Balb/c, mouse, plasma, 200 mg/kg oral single dose, 3 h",4200 ng/mL
same,concentration at 5 h,"[3]; both sexes, Balb/c, mouse, plasma, 200 mg/kg oral single dose, 5 h",3800 ng/mL
same,concentration at 6 h,"[3]; both sexes, Balb/c, mouse, plasma, 200 mg/kg oral single dose, 6 h",3700 ng/mL
same,concentration at 8 h,"[3]; both sexes, Balb/c, mouse, plasma, 200 mg/kg oral single dose, 8 h",3600 ng/mL
same,concentration at 24 h,"[3]; both sexes, Balb/c, mouse, plasma, 200 mg/kg oral single dose, 24 h",2400 ng/mL and 5.74 µM
same,Cmax,"[3]; both sexes, Balb/c, mouse, plasma, po, 200 mg/kg, 200 mg/kg oral single dose, read-out: highest plasma concentration (Cmax)",4200 ng/mL and 10 µM
same,half-life,"[3]; both sexes, Balb/c, mouse, plasma, two-compartment model, 200 mg/kg oral, read-out: estimated half-life (t1/2) (converted)",22.4 h
same,CLd/F intercompartmental clearance,[3]; [4],0.2514 L/h
same,CLt/F total clearance,[3]; [4],0.0357 L/h
same,Ka absorption constant,[3]; [4],0.6213 h⁻¹
same,Vc/F central volume,[3]; [4],0.6930 L
same,Vp/F peripheral volume,[3]; [4],0.4360 L
